The numbers were not newly measured in US20030032669A1, “Pesticidal compositions and their use as protecting agents” (priority 2000, published 2003), which cites them from elsewhere.

Each structure is given as a SMILES string.

For series [1], the system named is larvae of German cockroach Blatella germanica. The conditions noted are these: exposure to 100 ng/cm^2; after 3 weeks.
In series [2] the test system is adult grain weevils Sitophilus granarius. The conditions noted are these: wheat treated with 1 μg/g; after 50 days.
For series [3] the following is noted: aqueous solutions at 50° C.
The conditions of series [4]: alcohols, ketones and toluene.

`O=C(NC(=O)c1c(F)cccc1F)Nc1ccc(Oc2ccc(C(F)(F)F)cc2Cl)cc1F` [flufenoxuron, 1-[4-(2-chloro-trifluoro-p-tolyloxy)-2-fluorophenyl]-3-(2,6-difluorobenzoyl)urea]: the degradation in soil entry was “rapidly degraded”. The phyto-toxicity entry in the series on plants is reported as “no recorded phyto-toxicity”.

For the compound `CCOC(=O)NCCOc1ccc(Oc2ccccc2)cc1` [fenoxycarb, ethyl 2-(4-phenoxyphenoxy)ethylcarbamate], the degradation in soil entry was “rapidly degraded”. Moreover, the “reduction of population of larvae of German cockroach” value in series [1] is recorded as 90%. Moreover, in series [2], the “reduction of population of adult grain weevils” value is on record as 100%. Further, in series [3], the stability to hydrolysis entry is “stable to hydrolysis”. The “solubility in organic solvents” value in series [4] was “very soluble”.
